Laboratory results from patent US7012129B2, “Antiviral composition comprising glycine amide” (priority 2001, dated 2006).
Peptide text beside a SMILES is read from it.

Tests used:
HIV-1 [1] = conditions: for effect on HIV replication/infectivity (in words): 100 μM concentration; for p24 ng/ml Mean: 100 μM peptide, culture supernatant, day 7 after infection (FIG. 1), infected control 53.31
Description: The tripeptide amides made according to EXAMPLE 1 were used in several HIV-1 infectivity assays to determine the ability of said tripeptide amides to inhibit HIV replication and/or infection. The efficiency of HIV-1 replication and status of HIV-1 infection was monitored by the concentration of p24 protein in the cell supernatant.
In a first set of experiments, approximately 3×10^5 H9 cells were infected with HIV-1 (e.g., 50–100 TCID50 per 300,000 H9 cells) to test the inhibitory effect of various tripeptide amides provided at 100 μM concentration.
By one approach, virus was added at 50–100 TCID50 to 3×10^5 H9 cells in a total volume of 500 μl containing RPMI 1640 medium supplemented with 10% (v/v) heat-inactivated fetal bovine serum (FBS), L-Glutamine, and Bensylpenicillin and Streptomycin (PS) (approximately 0.5 ml added to 500 ml RPMI medium), all available through LifeTechnology/GIBCO laboratories. This media is referred to as “RPMI++ media.” Cell counting was accomplished using 0.2% tryphanblue dissolved in PBS and a Bürker cell counter chamber. The virus and cells were then mixed gently on a vortex and were incubated at 37° C. for one hour and thirty minutes. Next, the cells were pelleted at 1200 rpm for 7 minutes and the supernatant was discarded.
(§1) The cells were then resuspended in RPMI++ at a concentration of 3×10^5 cells per ml. […] Cells were then incubated at 37° C. in a 5% CO2 enriched incubator. The medium was changed on day 4, 7, and finally day 11. The infection was stopped on day 11 or 14. During each media change, approximately 0.8 ml was replaced and 0.8 ml of the supernatant was transferred to a sterile 96 well plate and stored at −80° C. for p24 analysis.
(§2) The presence of p24 in the supernatants was determined using a p24 antigen detection method. […] By one approach, a capture-assay is employed, wherein the viral antigen is captured on a 96-well plate coated with a polyclonal anti-p24 rabbit serum (Swedish Institute for infectious disease control). The captured antigen is then detected with peroxidase conjugated anti-p24 mouse monoclonal antibodies. The conjugate is a pool of three different monoclonal antibodies. The analysis was performed with cell free supernatant directly from the cell culture or with supernatant that had been stored at −20° C. to −80° C.
Accordingly, a p24 standard was diluted (e.g., 4, 2, 1, 0.5, 0.25, 0.125, 0.0625 ng/ml) in RPMI++ media. […] In some cases, serial dilutions of the supernatants were made so as to more accurately detect p24 concentration. Coated plates (e.g., plates coated with a polyclonal anti-p24 rabbit serum) were washed 4 times with approximately 300–350 μl/well washing buffer (PBS with 0.05% Tween-20). The plates were inverted and tapped against absorbant paper after each wash to discard the superfluous washing buffer. Approximately, 100 μl of each sample and standard was added to individual wells on the plate. The plates were covered with tape and incubated at 37° C. for 2 hours or in the dark at room temperature over night.
Next, the plates were washed again as above. Approximately 100 μl/well of conjugate diluted in conjugate buffer (PBS with 0.5% Triton X-100, 0.5% Bovine Serum Albumin, 0.05% Tween-20, and 10% Fetal Bovine Serum). The plates were then covered with tape and incubated at 37° C. for 2 to 4 hours.

HIV-1 [2] = conditions: for Mean p24: CEM cells, 100 μM, culture supernatant, day 11 after infection (FIG. 2), inf. control 1.62; for inhibition of HIV-1 replication (in words): infected CEM cells, 100 μM concentration
Protocol: By one approach, virus was added at 50–100 TCID50 to 3×10^5 H9 cells in a total volume of 500 μl containing RPMI 1640 medium supplemented with 10% (v/v) heat-inactivated fetal bovine serum (FBS), L-Glutamine, and Bensylpenicillin and Streptomycin (PS) (approximately 0.5 ml added to 500 ml RPMI medium), all available through LifeTechnology/GIBCO laboratories. […] The virus and cells were then mixed gently on a vortex and were incubated at 37° C. for one hour and thirty minutes. Next, the cells were pelleted at 1200 rpm for 7 minutes and the supernatant was discarded.
as §1, §2
Accordingly, a p24 standard was diluted (e.g., 4, 2, 1, 0.5, 0.25, 0.125, 0.0625 ng/ml) in RPMI++ media. The standard, recombinant HIV-1 LAI gag p24, was purchased from NIBSC, Centralized Facility for AIDS Reagent, MRC. (order no EVA620). In some cases, serial dilutions of the supernatants were made so as to more accurately detect p24 concentration. Coated plates (e.g., plates coated with a polyclonal anti-p24 rabbit serum) were washed 4 times with approximately 300–350 μl/well washing buffer (PBS with 0.05% Tween-20). The plates were inverted and tapped against absorbant paper after each wash to discard the superfluous washing buffer. Approximately, 100 μl of each sample and standard was added to individual wells on the plate. The plates were covered with tape and incubated at 37° C. for 2 hours or in the dark at room temperature over night.
Next, the plates were washed again as above. Approximately 100 μl/well of conjugate diluted in conjugate buffer (PBS with 0.5% Triton X-100, 0.5% Bovine Serum Albumin, 0.05% Tween-20, and 10% Fetal Bovine Serum). The plates were then covered with tape and incubated at 37° C. for 2 to 4 hours. The OPD substrate (ABBOTT) was then prepared by adding 1 tablet of OPD per 5 ml OPD substrate solution (12.8 mg OPD (o-phenylenediamine. 2 HCl) per tablet and 1 tablet was dissolved in 5 ml citrate-phosphate buffer containing 0.02% hydrogen peroxidase). The solution was kept in the dark until it was used. The conjugate bound plates were then washed as above and, after the final wash, 100 μof OPD substrate solution/well was added and the plates were incubated at room temperature for 30 minutes.

HIV [3] = experiment: Electron microscopy of HIV budding in treated ACH-2 cells (nodular structures); format: cell-based
HIV [4] = experiment: Electron microscopy of HIV budding in treated HUT78 cells (nodular structures); format: cell-based
[5] = ACH-2 cells, electron microscopy
[6] = HIV infected H9 cells, 100 μM, day 11 (FIG. 3)

`CC(C)C[C@H](NC(=O)CN)C(=O)NCC(N)=O` [GLG-NH2, glycyl-leucyl-glycine-amide] (H-Gly-Leu-Gly-NH2) was tested, and the “effect on HIV replication/infectivity (in words)” value (HIV-1 [1]; H9 cells) was “almost completely inhibited HIV replication” and the “p24 ng/ml Mean” value (HIV-1 [1]; H9 cells) was 2.71 ng/mL.
“α-tertiary-butylglycine-prolyl-glycine-amide [tbutGPG-NH2]” was tested, and the “effect on HIV replication/infectivity (in words)” value (HIV-1 [1]; H9 cells) was “almost completely inhibited HIV replication”, the “p24 ng/ml Mean” value (HIV-1 [1]; H9 cells) was 0.44 ng/mL and the “Mean p24” value (HIV-1 [2]) was -0.01 ng/mL. For the same compound, the “inhibition of HIV-1 replication (in words)” value (HIV-1 [2]) was “inhibit HIV-1 replication”.
`CC(C)C[C@H](N)C(=O)N[C@@H](CC(N)=O)C(=O)N[C@@H](Cc1ccccc1)C(N)=O` [LNF-NH2, leucyl-asparagyl-phenylalanine-amide, reference compound] (H-Leu-Asn-Phe-NH2) was tested, and the “Mean p24” value (HIV-1 [2]) was 1.45 ng/mL.
For `NCC(=O)N[C@@H](Cc1c[nH]c2ccccc12)C(=O)NCC(N)=O` [GWG-NH2, glycyl-tryptophanyl-glycine-amide] (H-Gly-Trp-Gly-NH2), the “effect on HIV replication/infectivity (in words)” value (HIV-1 [1]; H9 cells) was “almost completely inhibited HIV replication”, the “p24 ng/ml Mean” value (HIV-1 [1]; H9 cells) was 0.61 ng/mL and the “Mean p24” value (HIV-1 [2]) was 0.15 ng/mL. For the same compound, the “inhibition of HIV-1 replication (in words)” value (HIV-1 [2]) was “inhibit HIV-1 replication”.
`NCC(=O)N[C@@H](Cc1ccccc1)C(=O)NCC(N)=O` [GFG-NH2, glycyl-phenylalanyl-glycine-amide] (H-Gly-Phe-Gly-NH2) was tested, and the “effect on HIV replication/infectivity (in words)” value (HIV-1 [1]; H9 cells) was “almost completely inhibited HIV replication”, the “p24 ng/ml Mean” value (HIV-1 [1]; H9 cells) was 0.45 ng/mL and the “Mean p24” value (HIV-1 [2]) was 0.08 ng/mL. For the same compound, the “inhibition of HIV-1 replication (in words)” value (HIV-1 [2]) was “inhibit HIV-1 replication”.
In the case of `NCC(=O)N1CCC[C@H]1C(=O)NCC(N)=O` [GPG-NH2, glycyl-prolyl-glycine-amide, reference compound] (H-Gly-Pro-Gly-NH2), the “nodules in cells not stimulated with PMA to produce virus (in words)” value (HIV [3]; ACH-2 cells, 1 mM, no PMA stimulation) is reported as “did not show such nodules”, the “dense nodular structure attached to the outer part of viral envelope” value (“dense nodular structure attached” below) (HIV [3]; [5]) is reported as 2% and the “treated cells carrying virus particles that had nodular structures on outer membrane” value (HIV [3]; [5]) is reported as 74%. For the same compound, the “nodules upon combined treatment with protease inhibitor ritonavir (in words)” value (HIV [3]; PMA stimulated ACH-2 cells, GPG-NH2 1 mM plus ritonavir 2 μM) was “gave no such nodules”, the “dense nodular structure attached” value (HIV [4]) was 4% and the “treated cells carrying virus particles that had nodular structures on outer membrane” value (HIV [4]) was 65%. For the same compound, the “effect on HIV replication/infectivity (in words)” value (HIV-1 [1]; H9 cells) was “almost completely inhibited HIV replication”, the “p24 ng/ml Mean” value (HIV-1 [1]; H9 cells) was 0.42 ng/mL and the “Mean p24” value (HIV-1 [2]) was 0.07 ng/mL.
With `NCC(=O)NCC(=O)NCC(N)=O` [GGG-NH2, glycyl-glycyl-glycine-amide, reference compound] (H-Gly-Gly-Gly-NH2) the “effect on HIV replication/infectivity (in words)” value (HIV-1 [1]; H9 cells) was “little affect on HIV infectivity” and the “p24 ng/ml Mean” value (HIV-1 [1]; H9 cells) was 61.82 ng/mL.
In the case of `NCC(=O)N[C@@H](Cc1ccc(O)cc1)C(=O)NCC(N)=O` [GYG-NH2, glycyl-tyrosyl-glycine-amide] (H-Gly-Tyr-Gly-NH2), the “Mean p24” value (HIV-1 [2]) is reported as 0.02 ng/mL and the “inhibition of HIV-1 replication (in words)” value (HIV-1 [2]) is reported as “inhibited HIV-1 replication”.
For “prolyl-glycine-arginine-amide [PGR-NH2, reference compound]”, the “effect on HIV replication/infectivity (in words)” value (HIV-1 [1]; H9 cells) was “little affect on HIV infectivity” and the “p24 ng/ml Mean” value (HIV-1 [1]; H9 cells) was 55.93 ng/mL.
In the case of `C[C@H](N)C(=O)N1CCC[C@H]1C(=O)NCC(N)=O` [APG-NH2, alanyl-prolyl-glycine-amide] (H-Ala-Pro-Gly-NH2), the “effect on HIV replication/infectivity (in words)” value (HIV-1 [1]; H9 cells) is reported as “almost completely inhibited HIV replication”, the “p24 ng/ml Mean” value (HIV-1 [1]; H9 cells) is reported as 1.13 ng/mL and the “Mean p24” value (HIV-1 [2]) is reported as 0.01 ng/mL. For the same compound, the “inhibition of HIV-1 replication (in words)” value (HIV-1 [2]) was “inhibit HIV-1 replication”.
With `NCC(=O)O` [G-OH, glycine] the “p24 present in the culture supernatant” value (HIV-1 [1]; [6]) was “approximately 65 ng/ml”, the “Mean p24” value (HIV-1 [2]) was 1.73 ng/mL and the “inhibition of HIV-1 replication (in words)” value (HIV-1 [2]) was “an inhibition of HIV-1 replication was not observed”.
In the case of `CC(C)C[C@H](NC(=O)[C@H](C)N)C(=O)NCC(N)=O` [ALG-NH2, alanyl-leucyl-glycine-amide] (H-Ala-Leu-Gly-NH2), the “dense nodular structure attached” value (HIV [4]) is reported as 8% and the “treated cells carrying virus particles that had nodular structures on outer membrane” value (HIV [4]) is reported as 56%.
In the case of “fenylalanyl-leucyl-glycine-amide [FLG-NH2]”, the “effect on HIV replication/infectivity (in words)” value (HIV-1 [1]; H9 cells) is reported as “almost completely inhibited HIV replication”, the “p24 ng/ml Mean” value (HIV-1 [1]; H9 cells) is reported as 0.25 ng/mL and the “Mean p24” value (HIV-1 [2]) is reported as 0.00 ng/mL. The “inhibition of HIV-1 replication (in words)” value (HIV-1 [2]) was “inhibit HIV-1 replication”.
For `NCC(N)=O` [G-NH2, glycine amide], the “inhibition of HIV replication at 20 μM (in words)” value (HIV-1 [1]; H9 cells, 20 μM, p24 at day 11 after infection (FIG. 4)) was “almost completely inhibited HIV replication”, the “dose dependence of inhibition of HIV replication (in words)” value (HIV-1 [1]; H9 cells, 0.5–20 μM, p24 at day 11 after infection (FIG. 4)) was “inhibits HIV replication in a dose dependent manner” and the “concentration at which significant inhibition of HIV replication was achieved” value (HIV-1 [1]; H9 cells, p24 at day 11 after infection, 0.5–20 μM tested (FIG. 4)) was “less than 5 μM”. The “amount of p24 in culture supernatant compared with controls (in words)” value (HIV-1 [1]; [6]) was “almost identical to that found in the non-infected control”, the “Mean p24” value (HIV-1 [2]) was 0.04 ng/mL and the “inhibition of HIV-1 replication (in words)” value (HIV-1 [2]) was “inhibited HIV-1 replication”.
With `CC[C@H](C)[C@H](NC(=O)[C@H](C)N)C(=O)NCC(N)=O` [AIG-NH2, alanyl-isoleucyl-glycine-amide] (H-Ala-Ile-Gly-NH2) the “effect on HIV replication/infectivity (in words)” value (HIV-1 [1]; H9 cells) was “almost completely inhibited HIV replication” and the “p24 ng/ml Mean” value (HIV-1 [1]; H9 cells) was 10.69 ng/mL.
